# In ChEMBL document CHEMBL1201862, “PubChem BioAssay data set” (2004):
#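 1) Cells in 96-well plates. 2) Compound, 48 h, 5 concentrations. 3) Linear interpolation between surrounding doses. 4) Unreached endpoint = highest concentration. GI50 = concentration required for 50% inhibition of growth.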 Activity calls are given as the source filed them. No stated cut-off is given here; in the data, active = GI50 up to about 1.1 µM and inactive = higher.
# Tests used:
# Experiment in all cases: DTP human tumour cell line panel, 48 h
# [1] = test system: A498
# [2] = test system: A549
# [3] = test system: BT-549
# [4] = test system: CAKI-1
# [5] = test system: DU-145
# [6] = test system: EKVX
# [7] = test system: HCT-15
# [8] = test system: HL-60
# [9] = test system: IGROV-1
# [10] = test system: M14
# [11] = test system: MDA-MB-231
# [12] = test system: MDA-MB-435
# [13] = test system: MOLT-4
# [14] = test system: NCI-H23
# [15] = test system: NCI-H460
# [16] = test system: RXF 393
# [17] = test system: SF-268
# [18] = test system: SN12C
# [19] = test system: T47D
# [20] = test system: TK-10
SMILES,GI50 [1],GI50 [2],GI50 [3],GI50 [4],GI50 [5],GI50 [6],GI50 [7],GI50 [8],GI50 [9],GI50 [10],GI50 [11],GI50 [12],GI50 [13],GI50 [14],GI50 [15],GI50 [16],GI50 [17],GI50 [18],GI50 [19],GI50 [20]
Cc1cccc2sc(NC(=O)NS(=O)(=O)n3cnc4ccccc43)nc12,25.5 µM (inactive),37.5 µM (inactive),23.3 µM (inactive),34.7 µM (inactive),32.8 µM (inactive),1.67 µM (inactive),25.9 µM,31.5 µM (inactive),16.5 µM (inactive),31.3 µM (inactive),27 µM (inactive),27.9 µM (inactive),26.5 µM (inactive),18.4 µM (inactive),29.9 µM (inactive),15.9 µM (inactive),28.5 µM (inactive),25.9 µM (inactive),15.1 µM (inactive),35.6 µM (inactive)
CC(Cc1ccc(O)c(O)c1)C(C)Cc1ccc(O)c(O)c1 (centres undefined) [NORDIHYDROGUAIARETIC ACID],37 µM (inactive),33 µM (inactive),13.9 µM (inactive),11.4 µM (inactive),18.8 µM (inactive),23.4 µM (inactive),> 38.9 µM,2.99 µM (inactive),16.9 µM (inactive),16.5 µM (inactive),> 39.1 µM (inactive),13.5 µM (inactive),8.22 µM (inactive),20.1 µM (inactive),16.7 µM (inactive),13.6 µM (inactive),16.3 µM (inactive),> 36.7 µM (inactive),18.4 µM (inactive),23.6 µM (inactive)
CN(C)c1ccc(/C=C/C(=O)c2ccc(O)cc2)cc1,17.1 µM (inactive),6.27 µM (inactive),6.08 µM (inactive),12.9 µM (inactive),8.67 µM (inactive),31.3 µM (inactive),2.94 µM,1.79 µM (inactive),10.2 µM (inactive),4.14 µM (inactive),22.3 µM (inactive),1.27 µM (inactive),2.64 µM (inactive),11.3 µM (inactive),4.72 µM (inactive),6.27 µM (inactive),15.4 µM (inactive),5.37 µM (inactive),13.5 µM (inactive),35.3 µM (inactive)
CC(CO)[C@H]1OC(=O)C=C2[C@@]13O[C@@H]3[C@H]1OC(=O)[C@@]3(C)[C@H]4O[C@H]4C[C@@]2(C)[C@@H]13 (some centres undefined),4.1 µM (inactive),1.87 µM (inactive),2.11 µM (inactive),1.84 µM (inactive),1.39 µM (inactive),2.64 µM (inactive),0.914 µM,0.343 µM (active),1.5 µM (inactive),1.19 µM (inactive),2.51 µM (inactive),1.55 µM (inactive),0.488 µM (active),2.43 µM (inactive),0.583 µM (active),1.62 µM (inactive),0.973 µM (active),1.92 µM (inactive),2.92 µM (inactive),2.07 µM (inactive)
CCCCCCCCCCCCCCCC(=O)Nc1ccn(C2CC(OP(=O)(O)OCC3OC(n4cc(F)c(=O)[nH]c4=O)CC3OC(C)=O)C(CO)O2)c(=O)n1 (centres undefined),> 35 µM (inactive),0.836 µM (active),3.18 µM (inactive),1.56 µM (inactive),3.61 µM (inactive),> 61.2 µM (inactive),14.7 µM,3.94 µM (inactive),23.9 µM (inactive),11.4 µM (inactive),> 43.4 µM (inactive),34.7 µM (inactive),7.55 µM (inactive),3.86 µM (inactive),0.0664 µM (active),> 41 µM (inactive),0.528 µM (active),6.03 µM (inactive),20.8 µM (inactive),> 64 µM (inactive)
CC1=C(/C=C/C(C)=C/C=C/C(C)=C/C(=O)Nc2ccc(O)cc2)C(C)(C)CCC1 [FENRETINIDE],4.73 µM (inactive),5.97 µM (inactive),6.52 µM (inactive),5.06 µM (inactive),7.6 µM (inactive),9.25 µM (inactive),5.92 µM,0.893 µM (active),2.02 µM (inactive),4.92 µM (inactive),2.95 µM (inactive),3.09 µM (inactive),1.11 µM (active),2.06 µM (inactive),4.63 µM (inactive),2.04 µM (inactive),3.52 µM (inactive),2.52 µM (inactive),2.7 µM (inactive),16.1 µM (inactive)
NS(=O)(=O)c1ccc(/N=N/c2ccc(O)c(O)c2)cc1,24.9 µM (inactive),20.3 µM (inactive),2.58 µM (inactive),36.2 µM (inactive),31 µM (inactive),46.2 µM (inactive),3.18 µM,16.9 µM (inactive),11.7 µM (inactive),24.5 µM (inactive),10.7 µM (inactive),15.1 µM (inactive),3.79 µM (inactive),17 µM (inactive),19.9 µM (inactive),17.7 µM (inactive),14.5 µM (inactive),10.4 µM (inactive),34.8 µM (inactive),24.6 µM (inactive)
CCCCCCCC(=O)N/N=C/c1ccc(Sc2nccn2C)c([N+](=O)[O-])c1,15.2 µM (inactive),27.9 µM (inactive),16.1 µM (inactive),15.5 µM (inactive),18.4 µM (inactive),14.7 µM (inactive),14.5 µM,0.27 µM (active),6.79 µM (inactive),13.2 µM (inactive),15 µM (inactive),13.6 µM (inactive),11.4 µM (inactive),18.2 µM (inactive),14.9 µM (inactive),14.7 µM (inactive),15.7 µM (inactive),14.5 µM (inactive),10.7 µM (inactive),26.6 µM (inactive)
CC(=O)/C=C1\Nc2sc(C)c(C)c2C(=O)S1,> 100 µM (inactive),> 100 µM (inactive),53 µM (inactive),65.3 µM (inactive),69.7 µM (inactive),24.9 µM (inactive),28.9 µM,32.1 µM (inactive),29.6 µM (inactive),97.7 µM (inactive),88.3 µM (inactive),47.3 µM (inactive),10 µM (inactive),35.5 µM (inactive),10 µM (inactive),> 100 µM (inactive),28.8 µM (inactive),84.3 µM (inactive),47.2 µM (inactive),80.4 µM (inactive)
C=CC1(CC/C(=C\[N+](=O)[O-])c2ccc(OC)c(OC)c2)OCC(C)(C)CO1,> 10 µM (inactive),23.3 µM (inactive),13.8 µM (inactive),23.2 µM (inactive),16.7 µM (inactive),18 µM (inactive),12.7 µM,5.27 µM (inactive),,17.8 µM (inactive),25.9 µM (inactive),19.7 µM (inactive),1.46 µM (inactive),14.1 µM (inactive),18.2 µM (inactive),12.9 µM (inactive),16 µM (inactive),21 µM (inactive),14.5 µM (inactive),17.5 µM (inactive)
